How the values were obtained:
B16-F10 [1] = experiment: Cytotoxicity against mouse B16-F10 cells assessed as cell survival incubated for 24 hrs by alamarblue staining based analysis; format: functional; conditions: B16-F10, 24 h
[2] = Cytotoxicity against NF2-deficient mouse MEF cells assessed as cell survival incubated for 24 hrs by alamarblue staining based analysis; format: toxicity
JAR = experiment: Cytotoxicity against human JAR cells assessed as inhibition of cell growth; format: functional, cell-based
MCF7 = experiment: Cytotoxicity against human MCF7 cells assessed as inhibition of cell growth; format: functional, cell-based
HCT-116 = experiment: Cytotoxicity against human HCT-116 cells assessed as inhibition of cell growth; format: functional, cell-based
U-87 MG = experiment: Cytotoxicity against human U-87 MG cells assessed as inhibition of cell growth; format: functional, cell-based, U-87MG ATCC
B16-F10 [3] = experiment: Antitumor activity against metastatic mouse B16-F10 cells implanted in C57BL/6 mouse assessed as number of lung metastases at 9 to 9.5 mg/kg, ip administered for 12 days by histological analysis (reference value: 150 +/- 7); format: functional; conditions: dose 9-9.5 mg/kg, time 12 day
B16-F10 [4] = experiment: Antitumor activity against metastatic mouse B16-F10 cells implanted in C57BL/6 mouse assessed as number of lung metastases at 9 to 9.5 mg/kg, ip administered for 19 days by histological analysis (reference value: 190 +/- 9); format: functional; conditions: dose 9-9.5 mg/kg, time 19 day
B16-F10 [5] = experiment: Antitumor activity against metastatic mouse B16-F10 cells implanted in C57BL/6 mouse assessed as number of lung metastases at 9 to 9.5 mg/kg, ip administered for 15 days by histological analysis (reference value: 175 +/- 10); format: functional; conditions: dose 9-9.5 mg/kg, time 15 day
B16-F10 [6] = experiment: Antitumor activity against metastatic mouse B16-F10 cells implanted in C57BL/6 mouse assessed as number of lung metastases at 4.6 to 42 mg/kg, ip administered every 3rd day for 22 days measured on day 23 by histological analysis (reference value: 223 +/- 12); format: functional; conditions: dose 4.6-42 mg/kg, time 23 day
B16-F10 [7] = experiment: Antitumor activity against metastatic mouse B16-F10 cells implanted in C57BL/6 mouse assessed as number of lung metastases at 9 to 9.5 mg/kg, ip administered for 22 days by histological analysis (reference value: 223 +/- 12); format: functional; conditions: dose 9-9.5 mg/kg, time 22 day

SMILES	IC50 (B16-F10 [1]) [µM]	IC50 at 24 h [2] [µM]	also measured
CCOC(=O)c1c(N2C(N)=C(C(N)=O)C(=O)/C2=C\C(=O)c2ccc(Cl)cc2)sc2c1CCCC2	56.5	> 100	
CCOC(=O)c1c(N/C(=C\C(=O)c2ccc(OC)cc2)C(O)=C(C#N)C#N)sc2c1CCCC2	> 100	> 100	
CCOC(=O)c1c(N/C(=C\C(=O)c2ccc(C)cc2)C(O)=C(C#N)C#N)sc2c1CCCCC2	> 100	> 100	
CCOC(=O)C1=C(N)N(c2sc3c(c2C(=O)OCC)CCCC3)/C(=C/C(=O)c2cccs2)C1=O	57	> 100	
CCOC(=O)C1=C2NC(=O)c3c(sc4c3CCCC4)N2/C(=C/C(=O)c2ccc(OC)cc2OC)C1=O	32.6	> 100	
CCOC(=O)C1=C(Nc2ccccc2)S/C(=C\C2CCCCC2)C1=O			IC50 (JAR): 95.2 µM; IC50 (MCF7): 45.3 µM
CCOC(=O)/C(C#N)=C(O)/C(=C/C(=O)c1ccccc1)Nc1sc2c(c1C(=O)OCC)CCCC2	38.6	> 100	
CCOC(=O)C1=C2NC(=O)c3c(sc4c3CCCC4)N2/C(=C/C(=O)c2ccc(C)cc2)C1=O	40.5	> 100	
CCOC(=O)C1=C(N)N(c2sc3c(c2C(=O)OCC)CCCC3)/C(=C/C(=O)c2ccc(OC)cc2OC)C1=O	54.1	> 100	
O=C(CSc1nc2sc3c(c2c(=O)n1Cc1ccccc1)CCCC3)NNC(=S)Nc1ccccc1			IC50 (HCT-116): 5.33 µM
CCOC(=O)C1=C(N)N(c2sc3c(c2C(=O)OCC)CCCCC3)/C(=C/C(=O)c2ccc(C)cc2)C1=O	25.2	> 100	
CCOC(=O)c1c(N2C(N)=C(C(N)=O)C(=O)/C2=C\C(=O)c2ccccc2)sc2c1CCCC2	52.1	> 100	
CCOC(=O)C1=C(N)N(c2sc(C)c(C)c2C(=O)OCC)/C(=C/C(=O)c2ccccc2)C1=O	41.2	> 100	
CCOC(=O)c1c(NC(=C\C(=O)c2ccc(C)cc2)/C(O)=C(\C#N)C(N)=O)sc(C)c1C	17.9	> 100	
NC(=O)C1=C2NC(=O)c3c(sc4c3CCCCC4)N2/C(=C/C(=O)c2ccccc2)C1=O	24.5	> 100	
CCOC(=O)C1=C(N)N(c2sc(C)c(C)c2C(=O)OCC)/C(=C/C(=O)c2ccc(Cl)cc2)C1=O	57.3	> 100	
CCOC(=O)C1=C(N)N(c2sc3c(c2C(=O)OCC)CCCC3)/C(=C/C(=O)c2ccc(OC)cc2)C1=O	> 100	> 100	
CCOC(=O)c1c(N)sc(C(=O)Nc2ccccc2)c1-c1ccccc1			IC50 (U-87 MG): 7.4 µM
CCOC(=O)C1=C2NC(=O)c3c(sc(C)c3C)N2/C(=C/C(=O)c2ccc(Cl)cc2)C1=O	64.6	> 100	
CCOC(=O)c1c(NC(=C\C(=O)c2ccccc2)/C(O)=C(\C#N)C(N)=O)sc2c1CCCC2	14.1	> 100	
CCOC(=O)/C(C#N)=C(O)/C(=C/C(=O)c1ccc(OC)cc1)Nc1sc2c(c1C(=O)OCC)CCCC2	19.7	> 100	
CCOC(=O)c1c(N2C(N)=C(C(N)=O)C(=O)/C2=C\C(=O)c2ccc(OCC)cc2)sc2c1CCCC2	> 100	> 100	

SMILES	IC50 (B16-F10 [1]) [µM]	IC50 at 24 h [2] [µM]	also measured
CCOC(=O)/C(C#N)=C(O)/C(=C/C(=O)c1ccc(C)cc1)Nc1sc(C)c(C)c1C(=O)OCC	44.2	> 100	
CCOC(=O)c1c(N2C(N)=C(C(N)=O)C(=O)/C2=C\C(=O)c2ccc(OC)cc2)sc2c1CCCC2	48.1	> 100	
CCOC(=O)c1c(N2C(N)=C(C(N)=O)C(=O)/C2=C\C(=O)c2ccccc2)sc2c1CCCCC2	22.2	> 100	
COc1ccc(C(=O)/C=C2\C(=O)C(C(N)=O)=C3NC(=O)c4c(sc5c4CCCC5)N32)cc1	42.6	> 100	
CCOC(=O)C1=C(N)N(c2sc3c(c2C(=O)OCC)CCCC3)/C(=C/C(=O)c2ccc(C)cc2)C1=O	68.4	> 100	
CCOC(=O)c1c(NC(=C\C(=O)c2ccc(C)cc2)/C(O)=C(\C#N)C(N)=O)sc2c1CCCC2	11.9	> 100	
CCOC(=O)C1=C(N)N(c2sc(C)c(C)c2C(=O)OCC)/C(=C/C(=O)c2ccc(OC)cc2)C1=O	41.4	> 100	
CCOC(=O)c1c(N2C(N)=C(C#N)C(=O)/C2=C\C(=O)c2ccc(OC)cc2)sc2c1CCCCC2	9.1	> 100	
CCOC(=O)C1=C(N)N(c2sc3c(c2C(=O)OCC)CCCCC3)/C(=C/C(=O)c2ccccc2)C1=O	36.2	> 100	
CC(=O)O[C@H]1C(=O)[C@@]2(C)[C@H]([C@H](OC(=O)c3ccccc3)[C@]3(O)C[C@H](OC(=O)[C@H](O)[C@@H](NC(=O)c4ccccc4)c4ccccc4)C(C)=C1C3(C)C)[C@]1(OC(C)=O)CO[C@@H]1C[C@@H]2O [PACLITAXEL]			Activity (B16-F10 [3]): 158; Activity (B16-F10 [4]): 97; Activity (B16-F10 [5]): 125; Activity (B16-F10 [6]): 50; Activity (B16-F10 [7]): 80
CCOC(=O)/C(C#N)=C(O)/C(=C/C(=O)c1ccc(C)cc1)Nc1sc2c(c1C(=O)OCC)CCCC2	28.9	> 100	
NC(=O)C1=C2NC(=O)c3c(sc4c3CCCC4)N2/C(=C/C(=O)c2ccccc2)C1=O	56.9	> 100	
CCOC(=O)C1=C2NC(=O)c3c(sc4c3CCCCCC4)N2/C(=C/C(=O)c2ccccc2)C1=O	23.6	> 100	
CCOC(=O)C1=C(N)N(c2sc3c(c2C(=O)OCC)CCCC3)/C(=C/C(=O)c2ccccc2)C1=O	46.7	> 100	
CCOC(=O)c1c(N2C(N)=C(C(N)=O)C(=O)/C2=C\C(=O)c2ccc(OC)cc2OC)sc2c1CCCC2	48.2	> 100	
Cc1ccc(C(=O)/C=C2\C(=O)C(C#N)=C3NC(=O)c4c(sc5c4CCCCC5)N32)cc1	8.8	> 100	
CCOC(=O)c1c(N/C(=C\C(=O)c2ccc(OC)cc2)C(O)=C(C#N)C#N)sc2c1CCCCC2	> 100	> 100	
CCOC(=O)C1=C2NC(=O)c3c(sc4c3CCCC4)N2/C(=C/C(=O)c2cccs2)C1=O	58.6	> 100	
CCOC(=O)C1=C2NC(=O)c3c(sc(C)c3C)N2/C(=C/C(=O)c2ccc(C)cc2)C1=O	43.6	> 100	
CCOC(=O)C1=C2NC(=O)c3c(sc4c3CCCC4)N2/C(=C/C(=O)c2ccc(Cl)cc2)C1=O	54.4	> 100	
N#CC1=C2NC(=O)c3c(sc4c3CCCCCC4)N2/C(=C/C(=O)c2ccccc2)C1=O	12.6	> 100	
CCOC(=O)C1=C2NC(=O)c3c(sc4c3CCCC4)N2/C(=C/C(=O)c2ccccc2)C1=O	46.9	> 100	

Reference: ChEMBL document CHEMBL5325431, “Synthesis of thieno[3,2-e]pyrrolo[1,2-a]pyrimidine derivatives and their precursors containing 2-aminothiophenes fragments as anticancer agents for therapy of pulmonary metastatic melanoma” (Eur J Med Chem, 2023)
